The test system of test [1] is E. coli S30 extract (bacterial protein synthesis). In words: E. coli S30 extract coupled transcription-translation luciferase assay (inhibition of bacterial protein synthesis). Type of test: biochemical. To be noted: % inhibition @ 1 μM, read-out: S30 IC50 (μM/% inhib.). Put shortly: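 Coupled transcription-translation in E. coli S30 circular-DNA extract expressing luciferase from pBESTluc, with 8-point 2-fold compound dilutions; 1 hour at 37 °C, stopped at 4 °C. Luminescence read; % inhibition versus no-inhibitor wells, no-DNA wells as background.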

The target of test [2] is Rabbit Reticulocyte Lysate (eukaryotic protein synthesis). In words: Rabbit reticulocyte lysate luciferase assay (inhibition of eukaryotic protein synthesis). Type of test: biochemical. To be noted: % inhibition @ 1 μM, read-out: Rabbit reticulocyte IC50 (μM/% inhib.). Put shortly:
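In vitro translation of luciferase control RNA in nuclease-treated rabbit reticulocyte lysate with amino acid mixture, compounds in 2-fold serial dilution, 90 minutes at 30° C. Luminescence read after luciferase reagent; % inhibition relative to water no-inhibitor controls, with no-RNA background wells.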

Test [3] relates to A. baumannn (Ab). Put plainly: Broth microdilution minimum inhibitory concentration (MIC), CLSI. In kind it is cell-based. The conditions noted are these: A. baumannn; growth medium with sodium bicarbonate; read-out: Ab + bicarb MIC. Put shortly:
(§1)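 Modified CLSI method: CAMHB (± bicarbonate 6.25/25 mM or 0-50% human serum), 8-point two-fold series, triplicates, 5×10^4 CFU/well.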
(Broth dilution looks for growth in wells or tubes with falling amounts of substance.)

Test [4] has as its system E. coli (Ec). Described as above. Type of test: cell-based. The conditions noted are these: Escherichia coli, growth medium with sodium bicarbonate, read-out: E. coli + bicarb MIC. Put shortly:
as §1

The subject of test [5] is E. faecalis (Ef). The test is described as above. The conditions noted are these: Enterococcus faecalis, growth medium with sodium bicarbonate, read-out: Ef + bicarb MIC. In kind it is cell-based. The gist of the method: as §1
Test [6] has as its system P. aeruginosa (Pa). The test is described as above. In kind it is cell-based. The conditions noted are these: Pseudomonas aeruginosa, growth medium with sodium bicarbonate, read-out: Pa MIC + bicarb. Put shortly: as §1
In test [7] the test system is S. aureus (Sa). The description is as above. In kind it is cell-based. The conditions noted are these: Staphylococcus aureus, growth medium with sodium bicarbonate, read-out: Sa + bicarb MIC. Put shortly:
as §1

SMILES strings stand for the structures.

A word on the MIC: it is the least concentration at which growth counts as inhibited. With `CC(Cc1ccc(-n2ccc(NC(=O)N3CCN(C(=O)C(C)(C)N)CC3)nc2=O)cc1F)NC1CC2(CC(N)C2)C1` (stereo not drawn) [Compound 192], the IC50 in test [1] and in test [2] was not below 1 µM in each case. Also, the MIC in test [3] was more than 32 µg/mL; in test [4] it was less than 8 µg/mL; in test [5], less than 8 µg/mL; in test [6], more than 32 µg/mL; in test [7], less than 8 µg/mL.

With `CN(CCc1ccc(-n2ccc(NC(=O)N3CCN(C(=O)C(C)(C)N)CC3)nc2=O)cc1)C1CC2(CC(N)C2)C1` (stereo not drawn) [Compound 193], the IC50 in test [1] and in test [2] was not below 1 µM in each case. Further, the MIC in test [3] is more than 32 µg/mL; in test [4], less than 8 µg/mL; in test [5], 8 to 32 µg/mL; in test [6], more than 32 µg/mL; in test [7], less than 8 µg/mL.

Consider `CC(Cc1ccc(-n2ccc(NC(=O)N3CCN(C(=O)C(C)(C)N)CC3)nc2=O)cc1)N(CC1CC1)C1CC2(CC(N)C2)C1` (stereo not drawn) [Compound 194], for which the IC50 in test [1] is 0.5 to 1 µM; in test [2], not below 1 µM. Further, the minimum inhibitory concentration (MIC) in test [3] is 8 to 32 µg/mL; in test [4] it was less than 8 µg/mL; in test [5], less than 8 µg/mL; in test [6], more than 32 µg/mL; in test [7], less than 8 µg/mL.

Consider `CC(Cc1ccc(-n2ccc(NC(=O)N3CCN(C(=O)C(C)(C)N)CC3)nc2=O)cc1)N(CC(F)(F)F)C1CC2(CC(N)C2)C1` (stereo not drawn) [Compound 195], for which the IC50 in test [1] and in test [2] was not below 1 µM each time. Also, the MIC in test [3] is more than 32 µg/mL; in test [4], more than 32 µg/mL; in test [5], more than 32 µg/mL; in test [6], more than 32 µg/mL; in test [7], 8 to 32 µg/mL.

In the case of `CC(C)N(C(C)Cc1ccc(-n2ccc(NC(=O)N3CCN(C(=O)C(C)(C)N)CC3)nc2=O)cc1)C1CC2(CC(N)C2)C1` (stereo not drawn) [Compound 196], the IC50 in test [1] and in test [2] was not below 1 µM throughout. In addition, the MIC in test [3], in test [4], in test [5], in test [6] and in test [7] was more than 32 µg/mL in each case.

In the case of `CC(Cc1ccc(-n2ccc(NC(=O)N3CCN(C(=O)C(C)(C)N)CC3)nc2=O)cc1)N(CCO)C1CC2(CC(N)C2)C1` (stereo not drawn) [Compound 197], the IC50 in test [1] and in test [2] was not below 1 µM each time. Also, the MIC was more than 32 µg/mL in test [3]; less than 8 µg/mL in test [4]; 8 to 32 µg/mL in test [5]; more than 32 µg/mL in test [6]; less than 8 µg/mL in test [7].

As to `CCN(C(C)Cc1ccc(-n2ccc(NC(=O)N3CCN(C(=O)C(C)(C)N)CC3)nc2=O)cc1)C12CC(N)(C1)C2` (stereo not drawn) [Compound 198], the IC50 in test [1] and in test [2] was not below 1 µM in each case. The MIC is more than 32 µg/mL in test [3]; 8 to 32 µg/mL in test [4]; more than 32 µg/mL in test [5]; more than 32 µg/mL in test [6]; 8 to 32 µg/mL in test [7].

Take `CC(Cc1ccc(-n2ccc(NC(=O)N3CCN(C(=O)C(C)(C)N)CC3)nc2=O)cc1)N(C)C12CC(N)(C1)C2` (stereo not drawn) [Compound 199]: the IC50 in test [1] and in test [2] was not below 1 µM each time. For the same molecule, the MIC in test [3] is more than 32 µg/mL; in test [4], 8 to 32 µg/mL; in test [5], more than 32 µg/mL; in test [6], more than 32 µg/mL; in test [7], 8 to 32 µg/mL.

For the molecule `CC(Cc1ccc(-n2ccc(NC(=O)N3CCN(C(=O)C(C)(C)N)CC3)nc2=O)cc1)N(C)C12CC(CN)(C1)C2` (stereo not drawn) [Compound 200], the IC50 in test [1] and in test [2] was not below 1 µM throughout. For the same molecule, the MIC in test [3] was more than 32 µg/mL; in test [4], less than 8 µg/mL; in test [5], more than 32 µg/mL; in test [6], more than 32 µg/mL; in test [7] it was less than 8 µg/mL.

Regarding `CCN(C(C)Cc1ccc(-n2ccc(NC(=O)N3CCN(C(=O)C(C)(C)N)CC3)nc2=O)cc1)C12CC(CN)(C1)C2` (stereo not drawn) [Compound 201], the IC50 in test [1] is less than 0.5 µM; in test [2] it was not below 1 µM. Further, the MIC in test [3] was more than 32 µg/mL; in test [4], less than 8 µg/mL; in test [5] it was less than 8 µg/mL; in test [6], more than 32 µg/mL; in test [7] it was less than 8 µg/mL.

For the molecule `CC(Cc1ccc(-n2ccc(NC(=O)N3CCN(C(=O)C(C)(C)N)CC3)nc2=O)cc1)NC12CC(N)(C1)C2` (stereo not drawn) [Compound 202], the IC50 in test [1] and in test [2] was not below 1 µM throughout. Also, the MIC in test [3] was 8 to 32 µg/mL; in test [4], more than 32 µg/mL; in test [5] it was more than 32 µg/mL; in test [6], more than 32 µg/mL; in test [7], more than 32 µg/mL.

With `CC(Cc1ccc(-n2ccc(NC(=O)N3CCN(C(=O)C(C)(C)N)CC3)nc2=O)cc1)NC12CC(CN)(C1)C2` (stereo not drawn) [Compound 203], the IC50 in test [1] and in test [2] was not below 1 µM throughout. The MIC was more than 32 µg/mL in test [3]; 8 to 32 µg/mL in test [4]; more than 32 µg/mL in test [5]; more than 32 µg/mL in test [6]; 8 to 32 µg/mL in test [7].

For the molecule `CC(Cc1ccc(-n2ccc(NC(=O)N3CCN(C(=O)C(C)(C)N)CC3)nc2=O)cc1)NCC1[C@H]2CNC[C@@H]12` (stereo partly drawn) [Compound 204], the IC50 in test [1] and in test [2] was not below 1 µM each time. The MIC in test [3] was more than 32 µg/mL; in test [4], less than 8 µg/mL; in test [5], more than 32 µg/mL; in test [6] it was more than 32 µg/mL; in test [7], less than 8 µg/mL.

On to `CC(Cc1ccc(-n2ccc(NC(=O)N3CCN(C(=O)C(C)(C)N)CC3)nc2=O)cc1)N1C[C@@H]2[C@H](C1)[C@H]2C(C)(C)N` (stereo partly drawn) [Compound 205], for which the IC50 in test [1] and in test [2] was not below 1 µM throughout. Further, the MIC is more than 32 µg/mL in test [3]; 8 to 32 µg/mL in test [4]; more than 32 µg/mL in test [5]; more than 32 µg/mL in test [6]; 8 to 32 µg/mL in test [7].

For the molecule `CC(C)(N)C(=O)N1CCN(C(=O)Nc2ccn(-c3ccc(CN4C[C@@H]5C(C(C)(C)N)[C@@H]5C4)cc3)c(=O)n2)CC1` (stereo partly drawn) [Compound 206], the IC50 is less than 0.5 µM in test [1] and not below 1 µM in test [2]. Besides, the minimal inhibitory concentration (MIC) is more than 32 µg/mL in test [3]; less than 8 µg/mL in test [4]; 8 to 32 µg/mL in test [5]; more than 32 µg/mL in test [6]; less than 8 µg/mL in test [7].

Consider `CC(C)(N)C(=O)N1CCN(C(=O)Nc2ccn(-c3ccc(CN4C[C@@H]5C([C@H](N)CO)[C@@H]5C4)cc3)c(=O)n2)CC1` (stereo partly drawn) [Compound 207], for which the IC50 was less than 0.5 µM in test [1] and not below 1 µM in test [2]. Moreover, the MIC in test [3] is more than 32 µg/mL; in test [4], less than 8 µg/mL; in test [5], 8 to 32 µg/mL; in test [6] it was more than 32 µg/mL; in test [7], less than 8 µg/mL.

For the molecule `CC(Cc1ccc(-n2ccc(NC(=O)N3CCN(C(=O)C(C)(C)N)CC3)nc2=O)cc1C(F)(F)F)N1C[C@@H]2[C@@H](CN)[C@@H]2C1` (stereo partly drawn) [Compound 208], the IC50 in test [1] was less than 0.5 µM; in test [2] it was not below 1 µM. The MIC in test [3] is 8 to 32 µg/mL; in test [4], less than 8 µg/mL; in test [5] it was less than 8 µg/mL; in test [6], more than 32 µg/mL; in test [7] it was less than 8 µg/mL.

For `CC(Cc1ccc(-n2ccc(NC(=O)N3CCN(C(=O)C(C)(C)N)CC3)nc2=O)cc1C(F)(F)F)N1C[C@@H]2[C@@H](N)[C@@H]2C1` (stereo partly drawn) [Compound 209], the IC50 in test [1] and in test [2] was not below 1 µM throughout. Moreover, the MIC in test [3], in test [4], in test [5], in test [6] and in test [7] was more than 32 µg/mL in each case.

With `CC(C)(N)C(=O)N1CCN(C(=O)Nc2ccn(-c3ccc(CCN4C[C@@H]5[C@H](C4)[C@H]5C(N)CO)cc3)c(=O)n2)CC1` (stereo partly drawn) [Compound 210], the IC50 in test [1] was 0.5 to 1 µM; in test [2], not below 1 µM. For the same molecule, the MIC in test [3] is more than 32 µg/mL; in test [4] it was less than 8 µg/mL; in test [5], 8 to 32 µg/mL; in test [6], more than 32 µg/mL; in test [7], less than 8 µg/mL.

`CCC(Cc1ccc(-n2ccc(NC(=O)N3CCN(C(=O)C(C)(C)N)CC3)nc2=O)cc1C(F)(F)F)N1C[C@@H]2[C@@H](CN)[C@@H]2C1` (stereo partly drawn) [Compound 211]: the figures for the IC50 in test [1] and in test [2] were 0.5 to 1 µM and not below 1 µM, respectively. Further, the MIC was 8 to 32 µg/mL in test [3]; less than 8 µg/mL in test [4]; less than 8 µg/mL in test [5]; more than 32 µg/mL in test [6]; less than 8 µg/mL in test [7].

`CC(=O)NC[C@@H]1[C@H]2CN(C(C)Cc3ccc(-n4ccc(NC(=O)N5CCN(C(=O)C(C)(C)N)CC5)nc4=O)cc3)C[C@@H]12` (stereo partly drawn) [Compound 212]: the IC50 in test [1] and in test [2] was not below 1 µM each time. The MIC in test [3], in test [4], in test [5], in test [6] and in test [7] was more than 32 µg/mL in each case.

Source of the values: patent US12692253B2, “Antimicrobial compounds and methods” (Curza Global, LLC, priority 2019, dated 2026).
